Molecular target: T1, His6GalUSpn (UDP-glucose pyrophosphorylase, UDPG:PP, GalU) (Streptococcus pneumoniae, UniProt O86882)
T1 construct: complete galU gene amplified from plasmid pMMG2 into pET28a (NheI/BamHI; pETgalU), His6 tag before the protein, tag cut not mentioned; E. coli BL21(DE3), IMAC
Assay: malachite green Pi assay coupled to inorganic pyrophosphatase
Format: biochemical
Settings: 30 min preincubation at 37 °C with 7.5 mM compound; 7.5 mM UTP, 7.5 mM Glc-1P, 5 mM MgCl2, MOPS pH 8.0, 37 °C

T1 sequence (O86882 entry or part of it): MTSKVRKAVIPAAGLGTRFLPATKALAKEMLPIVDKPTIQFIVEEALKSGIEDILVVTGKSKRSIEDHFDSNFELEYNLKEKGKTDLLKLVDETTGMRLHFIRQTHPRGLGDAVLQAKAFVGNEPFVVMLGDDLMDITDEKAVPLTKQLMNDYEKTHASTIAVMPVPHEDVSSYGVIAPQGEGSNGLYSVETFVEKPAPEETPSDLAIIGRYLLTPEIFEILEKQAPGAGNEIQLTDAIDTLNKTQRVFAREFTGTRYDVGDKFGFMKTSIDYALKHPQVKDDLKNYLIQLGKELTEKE

| SMILES | % inhibition at 7.5 mM |
| --- | --- |
| Nc1nc(NC2CC2)c2ncn([C@H]3C=C[C@@H](CO)C3)c2n1 [abacavir] | inhibit S. pneumoniae UDP-glucose pyrophosphorylase, including compounds containing a purine base in their structure |
| Cc1cn([C@H]2C=C[C@@H](CO)O2)c(=O)[nH]c1=O [stavudine] | nucleoside analogs: abacavir, decitabine stavudine and zidovudine |
| Cc1cn([C@H]2C[C@H](N=[N+]=[N-])[C@@H](CO)O2)c(=O)[nH]c1=O [zidovudine] | nucleoside analogs: abacavir, decitabine stavudine and zidovudine |

Reference: article PMC6009895, “Screening assay for inhibitors of a recombinant Streptococcus pneumoniae UDP-glucose pyrophosphorylase” (Journal of Enzyme Inhibition and Medicinal Chemistry, 2017)
